Where two headings read alike, the source gives them in different places.
Tests used:
[1] = molecular target: T1, porcine kidney alanine aminopeptidase (pAPN, EC 3.4.11.2) (Sus scrofa, UniProt P15145); assay: Fluorogenic (Ala-AMC) enzyme inhibition assay, pAPN; format: biochemical; details: for Ki: racemic compounds, substrate Ala-AMC 100 µM, 50 mM Tris-HCl pH 7.20, 37 °C
T1 construct: porcine kidney alanine aminopeptidase (pAPN, EC 3.4.11.2); purchased Sigma Aldrich (Poznan, Poland); host or cells: porcine kidney (tissue-derived)
T1 sequence (P15145 1-963): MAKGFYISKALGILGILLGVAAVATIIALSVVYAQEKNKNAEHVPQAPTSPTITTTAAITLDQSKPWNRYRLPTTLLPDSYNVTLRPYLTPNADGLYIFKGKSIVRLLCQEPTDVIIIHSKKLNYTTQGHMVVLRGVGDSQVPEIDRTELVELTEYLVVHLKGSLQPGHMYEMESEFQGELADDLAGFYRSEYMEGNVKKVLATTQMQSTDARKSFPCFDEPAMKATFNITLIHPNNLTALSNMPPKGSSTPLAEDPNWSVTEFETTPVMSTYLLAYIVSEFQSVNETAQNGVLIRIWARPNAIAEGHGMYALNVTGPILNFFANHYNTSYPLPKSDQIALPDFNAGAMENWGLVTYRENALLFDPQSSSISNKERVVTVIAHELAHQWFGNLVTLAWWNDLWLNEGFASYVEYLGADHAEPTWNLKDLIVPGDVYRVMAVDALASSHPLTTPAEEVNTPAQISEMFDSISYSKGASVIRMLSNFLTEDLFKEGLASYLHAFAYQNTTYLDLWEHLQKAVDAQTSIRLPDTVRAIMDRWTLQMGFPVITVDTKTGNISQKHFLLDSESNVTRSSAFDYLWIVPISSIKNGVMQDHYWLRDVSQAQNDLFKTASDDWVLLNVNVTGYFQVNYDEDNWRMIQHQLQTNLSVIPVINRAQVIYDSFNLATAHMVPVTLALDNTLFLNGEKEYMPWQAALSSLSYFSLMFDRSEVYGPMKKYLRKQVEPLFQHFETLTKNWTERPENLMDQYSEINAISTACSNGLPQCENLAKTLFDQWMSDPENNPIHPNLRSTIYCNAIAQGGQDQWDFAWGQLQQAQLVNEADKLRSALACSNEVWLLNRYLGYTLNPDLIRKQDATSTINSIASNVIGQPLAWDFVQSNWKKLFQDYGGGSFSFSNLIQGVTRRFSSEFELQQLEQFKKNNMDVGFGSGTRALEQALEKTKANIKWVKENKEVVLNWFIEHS

[2] = molecular target: T2, Recombinant human alanine aminopeptidase (hAPN, EC 3.4.11.2) (Homo sapiens, UniProt P15144); assay: Fluorogenic (Ala-AMC) enzyme inhibition assay, hAPN; format: biochemical; details: for Ki: racemic compounds, substrate Ala-AMC 50 µM, 50 mM Tris-HCl pH 7.00, 37 °C
T2 construct: purchased R&D System (Minneapolis, MN)

[3] = molecular target: T1, porcine kidney alanine aminopeptidase (pAPN, EC 3.4.11.2); details: data from previous studies; cited from earlier work
[4] = molecular target: T2, Recombinant human alanine aminopeptidase (hAPN, EC 3.4.11.2); details: data from previous studies; cited from earlier work

T2 sequence (P15144 whole entry): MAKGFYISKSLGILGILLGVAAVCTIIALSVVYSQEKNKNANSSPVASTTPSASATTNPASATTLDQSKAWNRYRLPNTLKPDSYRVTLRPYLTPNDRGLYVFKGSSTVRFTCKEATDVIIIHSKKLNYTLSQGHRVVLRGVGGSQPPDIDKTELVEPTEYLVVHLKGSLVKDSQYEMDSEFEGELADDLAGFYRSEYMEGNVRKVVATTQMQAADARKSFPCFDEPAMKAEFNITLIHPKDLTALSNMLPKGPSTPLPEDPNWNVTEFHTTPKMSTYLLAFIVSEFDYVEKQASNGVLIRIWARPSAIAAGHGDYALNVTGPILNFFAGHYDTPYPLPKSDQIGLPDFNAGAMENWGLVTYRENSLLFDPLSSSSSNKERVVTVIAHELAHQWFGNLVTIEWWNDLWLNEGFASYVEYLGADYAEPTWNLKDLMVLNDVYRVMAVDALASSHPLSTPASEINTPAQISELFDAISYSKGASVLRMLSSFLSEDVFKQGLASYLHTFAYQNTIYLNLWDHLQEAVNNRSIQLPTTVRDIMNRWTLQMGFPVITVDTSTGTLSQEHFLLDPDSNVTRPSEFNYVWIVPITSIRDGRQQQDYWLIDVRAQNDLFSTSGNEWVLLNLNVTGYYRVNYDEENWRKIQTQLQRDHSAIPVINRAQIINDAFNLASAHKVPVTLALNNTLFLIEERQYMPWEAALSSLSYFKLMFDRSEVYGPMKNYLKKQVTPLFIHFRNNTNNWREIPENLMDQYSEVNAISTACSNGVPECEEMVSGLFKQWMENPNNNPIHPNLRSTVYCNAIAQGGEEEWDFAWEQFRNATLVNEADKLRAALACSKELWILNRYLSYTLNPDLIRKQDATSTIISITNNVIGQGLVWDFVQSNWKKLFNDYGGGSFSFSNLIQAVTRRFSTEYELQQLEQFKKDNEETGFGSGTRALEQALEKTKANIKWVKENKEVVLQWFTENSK

Molecule | Ki [1] [µM] | Ki [2] [µM] | melting point [°C] | further results
1-Amino-3-(2-Bromo-4-Fluorophenyl)ethylphosphonic Acid [Compound 17a] | 70 ± 6.6 | 14 ± 0.4 | – | –
1-Amino-3-(4-Bromo-2-Fluorophenyl)ethylphosphonic Acid [Compound 17d] | 82.5 ± 2 | 7.36 ± 0.21 | – | –
1-Amino-3-(4-Bromo-3-Fluorophenyl)ethylphosphonic Acid [Compound 17e] | 4.23 ± 0.44 | 0.67 ± 0.049 | – | –
Cc1cc(=O)oc2cc(NC(=O)[C@H](C)N)ccc12 [Ala-AMC, L-alanine-4-methylcoumaryl-7-amide, reference compound] | – | – | – | Km ([1]; substrate constant, determined analogously to the literature [23], read-out: Km towards Ala-AMC, pAPN): 90 µM; Km ([2]; substrate constant, determined analogously to the literature [23], read-out: Km towards Ala-AMC, hAPN): 73 µM
NC(CCc1ccccc1F)P(=O)(O)O (stereo not shown) [Compound 15b, 1-Amino-3-(2-Fluorophenyl)propylphosphonic Acid] | 12.7 ± 0.8 | 0.506 ± 0.038 | 292 to 294 | –
NC(CCc1cccc(F)c1)P(=O)(O)O (stereo not shown) [Compound 15c, 1-Amino-3-(3-Fluorophenyl)propylphosphonic Acid] | 2.63 ± 0.18 | 0.129 ± 0.025 | 292 to 294 | times better inhibitor than 15a ([2]; ratio of Ki values versus compound 15a, the text says both aminopeptidases, the factor matches hAPN): 5
NC(CCc1ccc(F)cc1)P(=O)(O)O (stereo not shown) [Compound 15d, 1-Amino-3-(4-Fluorophenyl)propylphosphonic Acid] | 1.69 ± 0.81 | 0.249 ± 0.025 | 303 to 305 | –
NC(CCc1ccc(F)cc1F)P(=O)(O)O (stereo not shown) [Compound 15e, 1-Amino-3-(2,4-Difluorophenyl)propylphosphonic Acid] | 1.71 ± 0.46 | 0.661 ± 0.105 | 304 to 306 | –
NC(CCc1ccc(F)c(F)c1)P(=O)(O)O (stereo not shown) [Compound 15f, 1-Amino-3-(3,4-Difluorophenyl)propylphosphonic Acid] | 1.02 ± 0.3 | 0.149 ± 0.011 | 292 to 293 | –
NC(CCc1ccc(C(F)(F)F)cc1)P(=O)(O)O (stereo not shown) [Compound 15g, 1-Amino-3-(4-Trifluoromethylphenyl)propylphosphonic Acid] | 0.976 ± 0.099 | 0.347 ± 0.062 | 295 to 296 | –
NC(CCc1ccccc1C(F)(F)F)P(=O)(O)O (stereo not shown) [Compound 15h, 1-Amino-3-(2-Trifluoromethylphenyl)propylphosphonic Acid] | 7.49 ± 0.58 | 0.804 ± 0.122 | 244 to 246 | –
NC(Cc1cc(F)ccc1Br)P(=O)(O)O (stereo not shown) [Compound 17b] | 379 ± 126 | 41.7 ± 7.4 | – | –
NC(Cc1ccc(F)c(Br)c1)P(=O)(O)O (stereo not shown) [Compound 17c, 1-Amino-3-(3-Bromo-4-Fluorophenyl)ethylphosphonic Acid] | 2.22 ± 0.14 | 0.248 ± 0.024 | – | –
NC(Cc1ccc(Cl)cc1F)P(=O)(O)O (stereo not shown) [Compound 17o] | – | – | – | Ki [3]: 160 ± 11 µM; Ki [4]: 17.8 ± 2.09 µM
NC(Cc1ccc(Cl)c(F)c1)P(=O)(O)O (stereo not shown) [Compound 17s] | – | – | – | Ki [3]: 14.8 ± 0.9 µM; Ki [4]: 1.01 ± 0.16 µM
NC(Cc1ccc(F)c(Cl)c1)P(=O)(O)O (stereo not shown) [Compound 17t] | – | – | – | Ki [3]: 6.93 ± 0.78 µM; Ki [4]: 0.542 ± 0.152 µM
